Seven cell lines from the supplement of paper PMC10307832 can be followed below.

Common to all, as to assay: relative viability (nuclei count vs DMSO), 5 days (fraction); higher = more cells survive
Compound in the assay “CX-5461 + Palbociclib”: Cc1cnc(CNC(=O)c2c(=O)c3ccc(N4CCCN(C)CC4)nc3n3c2sc2ccccc23)cn1 [CX-5461] + CC(=O)c1c(C)c2cnc(Nc3ccc(N4CCNCC4)cn3)nc2n(C2CCCC2)c1=O [Palbociclib] (partner 0.5 µM)
In a few lines: (§1)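 The day after seeding in 1536-well plates, lung cancer cell lines were treated by pin tool with a single drug, or with a fixed anchor-drug dose together with five library-drug doses (not always all listed) in √10 steps. After 5 days, a combined fix-and-stain solution (final 0.05% Triton X-100, 1% formaldehyde, 1 ug/ml Hoechst) was added. Nuclei counted on 4× images gave relative viability as treated counts over vehicle counts, reported as the median of duplicate plates.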

Compound in the assay “IMD-0354 + Palbociclib”: O=C(Nc1cc(C(F)(F)F)cc(C(F)(F)F)c1)c1cc(Cl)ccc1O [IMD-0354] + CC(=O)c1c(C)c2cnc(Nc3ccc(N4CCNCC4)cn3)nc2n(C2CCCC2)c1=O [Palbociclib] (partner 0.5 µM)
Summed up: as §1

Compound in the assay “IMD-0354 + Pictilisib”: O=C(Nc1cc(C(F)(F)F)cc(C(F)(F)F)c1)c1cc(Cl)ccc1O [IMD-0354] + CS(=O)(=O)N1CCN(Cc2cc3nc(-c4cccc5[nH]ncc45)nc(N4CCOCC4)c3s2)CC1 [Pictilisib] (partner 1 µM)
In a few lines:
as §1

Compound in the assay “IMD-0354 + Olaparib”: O=C(Nc1cc(C(F)(F)F)cc(C(F)(F)F)c1)c1cc(Cl)ccc1O [IMD-0354] + O=C(c1cc(Cc2n[nH]c(=O)c3ccccc23)ccc1F)N1CCN(C(=O)C2CC2)CC1 [Olaparib] (partner 8 µM)
In a few lines:
as §1

NCI-H2023: the relative viability with CX-5461 + Palbociclib (first compound 0.01 µM) was 0.413; with CX-5461 + Palbociclib (first compound 0.03162 µM), 0.373; in the assay with CX-5461 + Palbociclib (first compound 0.3162 µM), 0.309; in the assay with CX-5461 + Palbociclib (first compound 1 µM) it was 0.0908; with IMD-0354 + Palbociclib (first compound 0.04 µM) it was 0.495; in the assay with IMD-0354 + Palbociclib (first compound 0.1265 µM), 0.346. Moreover, the relative viability worked out at 0.273 with IMD-0354 + Palbociclib (first compound 0.4 µM); 0.316 with IMD-0354 + Palbociclib (first compound 1.265 µM); 0.241 with IMD-0354 + Palbociclib (first compound 4 µM); 0.301 in the assay with IMD-0354 + Pictilisib (first compound 0.04 µM); 0.255 with IMD-0354 + Pictilisib (first compound 0.1265 µM); 0.202 with IMD-0354 + Pictilisib (first compound 0.4 µM). Moreover, the relative viability with IMD-0354 + Pictilisib (first compound 1.265 µM) was 0.0996; with IMD-0354 + Pictilisib (first compound 4 µM), 0.0899; in the assay with IMD-0354 + Olaparib (first compound 0.04 µM) it was 0.504; with IMD-0354 + Olaparib (first compound 0.1265 µM), 0.427; with IMD-0354 + Olaparib (first compound 0.4 µM), 0.315; in the assay with IMD-0354 + Olaparib (first compound 1.265 µM), 0.0756. The relative viability with IMD-0354 + Olaparib (first compound 4 µM) turned out to be 0.183.

NCI-H2085: the relative viability with CX-5461 + Palbociclib (first compound 0.01 µM) stood at 0.453; in the assay with CX-5461 + Palbociclib (first compound 0.03162 µM), 0.466; with CX-5461 + Palbociclib (first compound 0.1 µM) it was 0.477; with CX-5461 + Palbociclib (first compound 0.3162 µM), 0.454; with CX-5461 + Palbociclib (first compound 1 µM), 0.457; with IMD-0354 + Palbociclib (first compound 0.04 µM), 0.461. The relative viability was determined as 0.439 in the assay with IMD-0354 + Palbociclib (first compound 0.1265 µM); 0.433 with IMD-0354 + Palbociclib (first compound 0.4 µM); 0.281 in the assay with IMD-0354 + Palbociclib (first compound 1.265 µM); 0.393 in the assay with IMD-0354 + Palbociclib (first compound 4 µM); 0.404 with IMD-0354 + Pictilisib (first compound 0.04 µM); 0.422 in the assay with IMD-0354 + Pictilisib (first compound 0.1265 µM). Further, the relative viability in the assay with IMD-0354 + Pictilisib (first compound 0.4 µM) stood at 0.424; with IMD-0354 + Pictilisib (first compound 1.265 µM), 0.309; with IMD-0354 + Pictilisib (first compound 4 µM) it was 0.303; with IMD-0354 + Olaparib (first compound 0.04 µM), 0.785; with IMD-0354 + Olaparib (first compound 0.1265 µM), 0.795; with IMD-0354 + Olaparib (first compound 0.4 µM), 0.713. Moreover, the relative viability amounted to 0.412 with IMD-0354 + Olaparib (first compound 1.265 µM) and 0.377 with IMD-0354 + Olaparib (first compound 4 µM).

Consider NCI-H2087, for which the relative viability with CX-5461 + Palbociclib (first compound 0.01 µM) is 0.179; with CX-5461 + Palbociclib (first compound 0.03162 µM), 0.224; with CX-5461 + Palbociclib (first compound 0.1 µM), 0.258; with CX-5461 + Palbociclib (first compound 0.3162 µM) it was 0.254; with CX-5461 + Palbociclib (first compound 1 µM) it was 0.268; with IMD-0354 + Palbociclib (first compound 0.04 µM), 0.238. Further, the relative viability with IMD-0354 + Palbociclib (first compound 0.1265 µM) is 0.196; in the assay with IMD-0354 + Palbociclib (first compound 0.4 µM) it was 0.21; with IMD-0354 + Palbociclib (first compound 1.265 µM) it was 0.104; with IMD-0354 + Palbociclib (first compound 4 µM) it was 0.0948; with IMD-0354 + Pictilisib (first compound 0.04 µM), 0.711; in the assay with IMD-0354 + Pictilisib (first compound 0.1265 µM), 0.979. Moreover, the relative viability with IMD-0354 + Pictilisib (first compound 0.4 µM) is 0.43; with IMD-0354 + Pictilisib (first compound 1.265 µM) it was 0.198; in the assay with IMD-0354 + Pictilisib (first compound 4 µM) it was 0.228; in the assay with IMD-0354 + Olaparib (first compound 0.04 µM), 0.517; with IMD-0354 + Olaparib (first compound 0.1265 µM), 0.457; with IMD-0354 + Olaparib (first compound 0.4 µM) it was 0.207. In addition, the relative viability with IMD-0354 + Olaparib (first compound 1.265 µM) stood at 0.0984; in the assay with IMD-0354 + Olaparib (first compound 4 µM) it was 0.122.

On to NCI-H2126, for which the relative viability in the assay with CX-5461 + Palbociclib (first compound 0.01 µM) was determined as 0.351; with CX-5461 + Palbociclib (first compound 0.03162 µM), 0.351; with CX-5461 + Palbociclib (first compound 0.1 µM), 0.358; with CX-5461 + Palbociclib (first compound 0.3162 µM), 0.351; with CX-5461 + Palbociclib (first compound 1 µM) it was 0.365; with IMD-0354 + Palbociclib (first compound 0.04 µM), 0.35. The relative viability amounted to 0.361 with IMD-0354 + Palbociclib (first compound 0.1265 µM); 0.364 with IMD-0354 + Palbociclib (first compound 0.4 µM); 0.316 with IMD-0354 + Palbociclib (first compound 1.265 µM); 0.311 in the assay with IMD-0354 + Palbociclib (first compound 4 µM); 0.527 with IMD-0354 + Pictilisib (first compound 0.04 µM); 0.478 with IMD-0354 + Pictilisib (first compound 0.1265 µM). Further, the relative viability is 0.471 with IMD-0354 + Pictilisib (first compound 0.4 µM); 0.353 with IMD-0354 + Pictilisib (first compound 1.265 µM); 0.302 with IMD-0354 + Pictilisib (first compound 4 µM); 1 with IMD-0354 + Olaparib (first compound 0.04 µM); 0.908 with IMD-0354 + Olaparib (first compound 0.1265 µM); 0.68 with IMD-0354 + Olaparib (first compound 0.4 µM). The relative viability with IMD-0354 + Olaparib (first compound 1.265 µM) stood at 0.512; with IMD-0354 + Olaparib (first compound 4 µM), 0.364.

As to NCI-H2170, the relative viability in the assay with CX-5461 + Palbociclib (first compound 0.01 µM) amounted to 0.412; in the assay with CX-5461 + Palbociclib (first compound 0.03162 µM), 0.361; with CX-5461 + Palbociclib (first compound 0.1 µM), 0.414; in the assay with CX-5461 + Palbociclib (first compound 0.3162 µM) it was 0.406; with CX-5461 + Palbociclib (first compound 1 µM), 0.422; in the assay with IMD-0354 + Palbociclib (first compound 0.04 µM) it was 0.425. Further, the relative viability with IMD-0354 + Palbociclib (first compound 0.1265 µM) was 0.394; in the assay with IMD-0354 + Palbociclib (first compound 0.4 µM), 0.342; with IMD-0354 + Palbociclib (first compound 1.265 µM), 0.385; with IMD-0354 + Palbociclib (first compound 4 µM), 0.229; with IMD-0354 + Pictilisib (first compound 0.04 µM), 0.283; with IMD-0354 + Pictilisib (first compound 0.1265 µM), 0.304. Moreover, the relative viability amounted to 0.308 with IMD-0354 + Pictilisib (first compound 0.4 µM); 0.284 with IMD-0354 + Pictilisib (first compound 1.265 µM); 0.277 with IMD-0354 + Pictilisib (first compound 4 µM); 0.531 with IMD-0354 + Olaparib (first compound 0.04 µM); 0.647 in the assay with IMD-0354 + Olaparib (first compound 0.1265 µM); 0.421 in the assay with IMD-0354 + Olaparib (first compound 0.4 µM). Moreover, the relative viability came out at 0.561 with IMD-0354 + Olaparib (first compound 1.265 µM) and 0.185 in the assay with IMD-0354 + Olaparib (first compound 4 µM).

For NCI-H2228, the relative viability is 0.709 with CX-5461 + Palbociclib (first compound 0.01 µM); 0.612 with CX-5461 + Palbociclib (first compound 0.03162 µM); 0.563 with CX-5461 + Palbociclib (first compound 0.1 µM); 0.73 with CX-5461 + Palbociclib (first compound 0.3162 µM); 0.115 with CX-5461 + Palbociclib (first compound 1 µM); 0.618 with IMD-0354 + Palbociclib (first compound 0.04 µM). In addition, the relative viability with IMD-0354 + Palbociclib (first compound 0.1265 µM) was determined as 0.618; with IMD-0354 + Palbociclib (first compound 0.4 µM) it was 0.683; in the assay with IMD-0354 + Palbociclib (first compound 1.265 µM), 0.21; in the assay with IMD-0354 + Palbociclib (first compound 4 µM), 0.322; with IMD-0354 + Pictilisib (first compound 0.04 µM), 0.388; in the assay with IMD-0354 + Pictilisib (first compound 0.1265 µM) it was 0.367. The relative viability came out at 0.217 with IMD-0354 + Pictilisib (first compound 0.4 µM); 0.365 in the assay with IMD-0354 + Pictilisib (first compound 1.265 µM); 0.247 with IMD-0354 + Pictilisib (first compound 4 µM); 0.888 in the assay with IMD-0354 + Olaparib (first compound 0.04 µM); 0.586 with IMD-0354 + Olaparib (first compound 0.1265 µM); 0.482 with IMD-0354 + Olaparib (first compound 0.4 µM). For the same cell line, the relative viability is 0.274 with IMD-0354 + Olaparib (first compound 1.265 µM) and 0.172 with IMD-0354 + Olaparib (first compound 4 µM).

With NCI-H2347, the relative viability with CX-5461 + Palbociclib (first compound 0.01 µM) turned out to be 0.424; in the assay with CX-5461 + Palbociclib (first compound 0.03162 µM), 0.437; with CX-5461 + Palbociclib (first compound 0.1 µM), 0.427; in the assay with CX-5461 + Palbociclib (first compound 0.3162 µM) it was 0.407; with CX-5461 + Palbociclib (first compound 1 µM) it was 0.404; with IMD-0354 + Palbociclib (first compound 0.04 µM), 0.39. The relative viability with IMD-0354 + Palbociclib (first compound 0.1265 µM) worked out at 0.418; in the assay with IMD-0354 + Palbociclib (first compound 0.4 µM) it was 0.362; with IMD-0354 + Palbociclib (first compound 1.265 µM) it was 0.41; in the assay with IMD-0354 + Palbociclib (first compound 4 µM), 0.405; in the assay with IMD-0354 + Pictilisib (first compound 0.04 µM), 0.77; in the assay with IMD-0354 + Pictilisib (first compound 0.1265 µM) it was 0.532. Besides, the relative viability stood at 0.679 with IMD-0354 + Pictilisib (first compound 0.4 µM); 0.624 in the assay with IMD-0354 + Pictilisib (first compound 1.265 µM); 0.392 in the assay with IMD-0354 + Pictilisib (first compound 4 µM); 0.606 with IMD-0354 + Olaparib (first compound 0.04 µM); 0.64 in the assay with IMD-0354 + Olaparib (first compound 0.1265 µM); 0.49 with IMD-0354 + Olaparib (first compound 0.4 µM). For the same cell line, the relative viability came to 0.377 with IMD-0354 + Olaparib (first compound 1.265 µM) and 0.265 in the assay with IMD-0354 + Olaparib (first compound 4 µM).
